Data: publication PMC8482806, “A Novel Blood-Brain Barrier-Permeable Chemotherapeutic Agent for the Treatment of Glioblastoma” (Cureus, 2021)

Experiment: [14C]-QBS10072S distribution by quantitative whole-body autoradiography in mice with intracranial LN229 tumors
Format: in vivo, mouse
Conditions: 5 mg/kg IV
Method: Athymic mice with intracranial implanted LN229 cells received a single IV dose of 5 mg/kg and 200 μCi/kg [14C]-QBS10072S into the tail vein using the formulation described above. Animals (one per time point) were sacrificed one, eight, and 24 hours post-dose, and frozen in a hexane/solid carbon dioxide bath for at least 10 minutes. The carcasses were processed as described for quantitative whole-body autoradiography. Briefly, sagittal sections (~ 40 μm thick) were cut using a microtome, mounted, and exposed to a [14C]-sensitive phosphor imaging plate for four days. The images were scanned and quantitated by image densitometry using MCID image analysis software. The concentrations of radioactivity were expressed as the μg equivalents of test article per gram sample (μg equiv/g). The upper and lower limits of quantification were 550 and 0.008 μg equiv/g, respectively (QPS, Newark, DE).

SMILES: Cc1ccc(N(CCCl)C[14CH2]Cl)cc1C[C@H](N)CC(=O)O.Cl.Cl [[14C]-QBS10072S, [chloroethyl-2-14C]-QBS10072S×2HCl]
- Tissue Concentration (Adipose (brown), 1 h): 2.528 µg equiv/g tissue
- Tissue Concentration (Adipose (brown), 8 h): 0.440 µg equiv/g tissue
- Tissue Concentration (Adipose (brown), 24 h): 0.577 µg equiv/g tissue
- Tissue Concentration (Adipose (white), 1 h): 0.409 µg equiv/g tissue
- Tissue Concentration (Adipose (white), 8 h): 0.348 µg equiv/g tissue
- Tissue Concentration (Adipose (white), 24 h): 0.381 µg equiv/g tissue
- Tissue Concentration (Adrenal Gland, 1 h): 2.700 µg equiv/g tissue
- Tissue Concentration (Adrenal Gland, 8 h): 0.638 µg equiv/g tissue
- Tissue Concentration (Adrenal Gland, 24 h): 0.533 µg equiv/g tissue
- Tissue Concentration (Blood (cardiac), 1 h): 2.204 µg equiv/g tissue
- Tissue Concentration (Blood (cardiac), 8 h): 0.581 µg equiv/g tissue
- Tissue Concentration (Blood (cardiac), 24 h): 0.734 µg equiv/g tissue
- Tissue Concentration (Bone, 1 h): 0.350 µg equiv/g tissue
- Tissue Concentration (Bone, 8 h): 0.165 µg equiv/g tissue
- Tissue Concentration (Bone, 24 h): 0.065 µg equiv/g tissue
- Tissue Concentration (Brain (cerebellum), 1 h): 0.395 µg equiv/g tissue
- Tissue Concentration (Brain (cerebellum), 8 h): 0.105 µg equiv/g tissue
- Tissue Concentration (Brain (cerebellum), 24 h): 0.120 µg equiv/g tissue
- Tissue Concentration (Brain (cerebrum), 1 h): 0.469 µg equiv/g tissue
- Tissue Concentration (Brain (cerebrum), 8 h): 0.109 µg equiv/g tissue
- Tissue Concentration (Brain (cerebrum), 24 h): 0.101 µg equiv/g tissue
- Tissue Concentration (Brain (medulla), 1 h): 0.403 µg equiv/g tissue
- Tissue Concentration (Brain (medulla), 8 h): 0.081 µg equiv/g tissue
- Tissue Concentration (Brain (medulla), 24 h): 0.118 µg equiv/g tissue
- Tissue Concentration (Cecum (contents), 1 h): 3.895 µg equiv/g tissue
- Tissue Concentration (Cecum (contents), 8 h): 24.266 µg equiv/g tissue
- Tissue Concentration (Cecum (contents), 24 h): 9.502 µg equiv/g tissue
- Tissue Concentration (Cecum, 1 h): 2.419 µg equiv/g tissue
- Tissue Concentration (Cecum, 8 h): 0.924 µg equiv/g tissue
- Tissue Concentration (Cecum, 24 h): 0.655 µg equiv/g tissue
- Tissue Concentration (Choroid Plexus, 1 h): 0.815 µg equiv/g tissue
- Tissue Concentration (Choroid Plexus, 8 h): 0.159 µg equiv/g tissue
- Tissue Concentration (Choroid Plexus, 24 h): 0.186 µg equiv/g tissue
- Tissue Concentration (Esophagus, 1 h): 1.211 µg equiv/g tissue
- Tissue Concentration (Esophagus, 8 h): 0.442 µg equiv/g tissue
- Tissue Concentration (Esophagus, 24 h): 0.565 µg equiv/g tissue
- Tissue Concentration (Harderian Gland, 1 h): 3.371 µg equiv/g tissue
- Tissue Concentration (Harderian Gland, 8 h): 0.468 µg equiv/g tissue
- Tissue Concentration (Harderian Gland, 24 h): 0.329 µg equiv/g tissue
- Tissue Concentration (Heart, 1 h): 2.165 µg equiv/g tissue
- Tissue Concentration (Heart, 8 h): 0.489 µg equiv/g tissue
- Tissue Concentration (Heart, 24 h): 0.480 µg equiv/g tissue
- Tissue Concentration (Kidney (outer medulla), 1 h): 6.281 µg equiv/g tissue
- Tissue Concentration (Kidney (outer medulla), 8 h): 1.372 µg equiv/g tissue
- Tissue Concentration (Kidney (outer medulla), 24 h): 1.164 µg equiv/g tissue
- Tissue Concentration (Large Intestine, 1 h): 1.437 µg equiv/g tissue
- Tissue Concentration (Liver, 1 h): 5.522 µg equiv/g tissue
- Tissue Concentration (Liver, 8 h): 0.674 µg equiv/g tissue
- Tissue Concentration (Liver, 24 h): 0.598 µg equiv/g tissue
- Tissue Concentration (Lung, 1 h): 2.943 µg equiv/g tissue
- Tissue Concentration (Lung, 8 h): 0.684 µg equiv/g tissue
- Tissue Concentration (Lung, 24 h): 0.620 µg equiv/g tissue
- Tissue Concentration (Mammary Gland Region, 1 h): 0.485 µg equiv/g tissue
- Tissue Concentration (Mammary Gland Region, 8 h): 0.173 µg equiv/g tissue
- Tissue Concentration (Mammary Gland Region, 24 h): 0.365 µg equiv/g tissue
- Tissue Concentration (Ovary, 1 h): 2.564 µg equiv/g tissue
- Tissue Concentration (Ovary, 8 h): 0.563 µg equiv/g tissue
- Tissue Concentration (Ovary, 24 h): 0.585 µg equiv/g tissue
- Tissue Concentration (Pancreas, 1 h): 3.270 µg equiv/g tissue
- Tissue Concentration (Pancreas, 8 h): 0.546 µg equiv/g tissue
- Tissue Concentration (Pancreas, 24 h): 0.442 µg equiv/g tissue
- Tissue Concentration (Pituitary Gland, 1 h): 1.689 µg equiv/g tissue
- Tissue Concentration (Pituitary Gland, 8 h): 0.468 µg equiv/g tissue
- Tissue Concentration (Pituitary Gland, 24 h): 0.128 µg equiv/g tissue
- Tissue Concentration (Salivary Gland, 1 h): 2.429 µg equiv/g tissue
- Tissue Concentration (Salivary Gland, 8 h): 0.428 µg equiv/g tissue
- Tissue Concentration (Salivary Gland, 24 h): 0.368 µg equiv/g tissue
- Tissue Concentration (Skeletal Muscle, 1 h): 1.123 µg equiv/g tissue
- Tissue Concentration (Skeletal Muscle, 8 h): 0.602 µg equiv/g tissue
- Tissue Concentration (Skeletal Muscle, 24 h): 0.627 µg equiv/g tissue
- Tissue Concentration (Skin, 1 h): 1.496 µg equiv/g tissue
- Tissue Concentration (Skin, 8 h): 0.479 µg equiv/g tissue
- Tissue Concentration (Skin, 24 h): 0.425 µg equiv/g tissue
- Tissue Concentration (Spinal Cord, 1 h): 0.480 µg equiv/g tissue
- Tissue Concentration (Spinal Cord, 8 h): 0.100 µg equiv/g tissue
- Tissue Concentration (Spinal Cord, 24 h): 0.120 µg equiv/g tissue
- Tissue Concentration (Thyroid, 1 h): 1.802 µg equiv/g tissue
- Tissue Concentration (Thyroid, 8 h): 0.374 µg equiv/g tissue
- Tissue Concentration (Thyroid, 24 h): 0.653 µg equiv/g tissue
- Tissue Concentration (Tumor High, 1 h): 2.836 µg equiv/g tissue
- Tissue Concentration (Tumor High, 8 h): 0.575 µg equiv/g tissue
- Tissue Concentration (Tumor High, 24 h): 0.479 µg equiv/g tissue
- Tissue Concentration (Tumor Low, 1 h): 1.245 µg equiv/g tissue
- Tissue Concentration (Tumor Low, 8 h): 0.162 µg equiv/g tissue
- Tissue Concentration (Tumor Low, 24 h): 0.240 µg equiv/g tissue
- Tissue Concentration (Tumor, 1 h): 1.961 µg equiv/g tissue
- Tissue Concentration (Tumor, 8 h): 0.427 µg equiv/g tissue
- Tissue Concentration (Tumor, 24 h): 0.275 µg equiv/g tissue
- Tissue Concentration (Urinary Bladder (contents), 1 h): 206.798 µg equiv/g tissue
- Tissue Concentration (Urinary Bladder (contents), 8 h): 1.716 µg equiv/g tissue
- Tissue Concentration (Urinary Bladder (contents), 24 h): 0.811 µg equiv/g tissue
- Tissue Concentration (Urinary Bladder, 1 h): 3.914 µg equiv/g tissue
- Tissue Concentration (Urinary Bladder, 8 h): 0.821 µg equiv/g tissue
- Tissue Concentration (Urinary Bladder, 24 h): 0.485 µg equiv/g tissue
- Tissue Concentration (Uterus, 1 h): 1.849 µg equiv/g tissue
- Tissue Concentration (Uterus, 8 h): 0.563 µg equiv/g tissue
- Tissue Concentration (Uterus, 24 h): 0.511 µg equiv/g tissue
- Tissue Concentration (Vagina, 1 h): 1.337 µg equiv/g tissue
- Tissue Concentration (Vagina, 8 h): 0.640 µg equiv/g tissue
- Tissue Concentration (Vagina, 24 h): 0.629 µg equiv/g tissue
